Reference: paper PMC10600239, “Selective MCL-1 inhibitor ABBV-467 is efficacious in tumor models but is associated with cardiac troponin increases in patients” (Communications Medicine, 2023)
Several values for one entry are separate records, joined by “and”; a condition that tells them apart may be missing. Equal entries are not always repeated.

Tested on: AMO-1 xenografts
Experiment: AMO-1 xenograft efficacy (tumor volume, body weight)
Format: in vivo, mouse
Experimental: All animal studies were conducted in accordance with the guidelines approved by the Institutional Animal Care and Use Committees of AbbVie. The research protocol was approved by In Vivo Pharmacology at AbbVie prior to study initiation but was not publicly registered or disclosed. Female C.B-17 SCID-beige mice (AMO-1, OPM-2, NCI-H929, and OCI-AML2 xenografts) and female NSG mice (MV4-11-Red.Fluc systemic) were purchased from Charles River Laboratories (Wilmington, MA). Animals were housed in a light cycle-controlled room with HEPA filtration at 22 °C. Animals had nesting and climbing cage topper as the primary environmental enrichment. Animals were inoculated subcutaneously in the right flank with 5 × 10^6 (AMO-1, OPM-2, NCI-H929, and OCI-AML2) or intravenous (IV) with 5 × 10^6 (MV4-11-Red.Fluc). The inoculation volume (0.2 mL) comprised a 50:50 mixture of cells in growth media and Matrigel (BD Biosciences) for subcutaneous injections and 100% phosphate-buffered saline for IV administration. All cell lines used in this publication were authenticated using IDEXX for STR profiling as well as their IMPACT and human IMPACT panels for pathogen screening. Electronic calipers were used to measure the length and width of each tumor 2 to 3 times per week. Tumor volume was estimated by applying the following equation: volume = length × width^2/2. All groups remained blinded during measurements and dosing; only veterinary staff were aware of group identity. When tumors reached approximately 200 mm^3, mice were randomized by match and distributed into treatment and control groups. All xenograft trials were conducted using 5 to 10 mice per group, and all mice were ear tagged and monitored individually throughout the studies. […] Tumor burden in the systemic MV4-11-Red.Fluc experiment was measured using an IVIS® spectrum from PerkinElmer by taking the total photon flux of the entire dorsal side of an individual mouse. […] A background control mouse that was tumor naive but received D-Luciferin was placed in the upper left corner of each image. The total flux from this animal was subtracted from the total flux of each animal present in the image.
For in vivo studies, maximal tumor growth inhibition (TGI) was calculated as the greatest treatment response using the following equation: Maximal TGI = (1 − mean tumor volume of the treated group/mean tumor volume of the vehicle control group) × 100. The tumor growth delay (TGD) percentage was determined as the percentage increase of the median time period for the treatment group to reach an arbitrary tumor volume of 1000 mm^3 relative to the vehicle control group. […] A power analysis was conducted using historical data to determine the number of animals required to yield significance of 0.05 at a 30% difference. […] Data from experiments in vivo were analyzed using the student’s t-test for TGI values and the Mann–Whitney U test for TGD using Excel and GraphPad Prism. Fisher’s exact test was used to probe significance of differences in response frequency.

[1] = 6.25 mg/kg Q7Dx2 IV, SCID-beige female mice, Day 26
[2] = 6.25 mg/kg Q7Dx2 IV, SCID-beige female mice, Day 28
[3] = 6.25 mg/kg Q7Dx2 IV, SCID-beige mice, Day 13 (measure date 10/25/2017, dosing begin 10/26/2017)
[4] = 6.25 mg/kg QDx1 IV, Day 26, n=8
[5] = 6.25 mg/kg QDx1 IV, Day 28, n=8
[6] = 6.25 mg/kg QDx1 IV, SCID-beige mice, Day 21
[7] = 6.25 mg/kg QDx1 IV, SCID-beige mice, Day 23
[8] = 6.25 mg/kg QDx1 IV, SCID-beige mice, Day 23, mean(T)/mean(C)
[9] = 6.25 mg/kg QDx1 IV, SCID-beige mice, Day 23, median(T)/median(C)

Cc1c(Cl)c2c(Cl)c(C)c1-c1c(-c3ccc(F)cc3)sc3ncnc(c13)O[C@@H](C(=O)O)Cc1cc(ccc1OCc1ccnc(-c3ccc(OC[C@H]4COCCO4)cc3)n1)OC[C@@H](CN1CCN(C)CC1)O2 [Compound A-1747745.0]
Xenograft AMO-1 (DSMZ) tumor volume Day 24, Median (6.25 mg/kg Q7Dx2 IV, SCID-beige female mice, Day 24): 183.76 mm³
Xenograft AMO-1 (DSMZ) tumor volume Day 26, Mean [1]: 300.68 mm³
Xenograft AMO-1 (DSMZ) tumor volume Day 26, Median [1]: 173.91 mm³
Xenograft AMO-1 (DSMZ) tumor volume Day 26, individual animals [1]: 165 mm³ and 890 mm³ and 293 mm³ and 308 mm³ and 143 mm³ and 174 mm³ and 132 mm³
Xenograft AMO-1 (DSMZ) (mm³) Day 28, individual animals [2]: 242 mm³ and 1605 mm³ and 585 mm³ and 510 mm³ and 266 mm³ and 306 mm³ and 32 mm³
Xenograft AMO-1 (DSMZ) Day 28 Mean [2]: 506.48 mm³
Xenograft AMO-1 (DSMZ) Day 28 Median [2]: 305.62 mm³
Xenograft AMO-1 (DSMZ) tumor volume Day 13, Mean [3]: 222.44 mm³
Xenograft AMO-1 (DSMZ) tumor volume Day 13, Median [3]: 219.48 mm³
Xenograft AMO-1 (DSMZ) tumor volume Day 13, individual animals [3]: 230 mm³ and 206 mm³ and 247 mm³ and 219 mm³ (2×) and 232 mm³ and 204 mm³
Xenograft AMO-1 (DSMZ) (mm³) Day 32 Mean (6.25 mg/kg Q7Dx2 IV, group mean tumor volume, Day 32): 1661.51 mm³
Xenograft AMO-1 (DSMZ) (mm³) Day 32 Median (6.25 mg/kg Q7Dx2 IV, group median tumor volume, Day 32): 1251.91 mm³
Xenograft AMO-1 (DSMZ) (mm³) Day 32 (6.25 mg/kg Q7Dx2 IV, individual animal tumor volume, Day 32): 1252 mm³ and 3313 mm³ and 2126 mm³ and 1223 mm³ and 2463 mm³ and 1036 mm³ and 218 mm³
Xenograft AMO-1 (DSMZ) tumor volume Day 26, Mean [4]: 454.97 mm³
Xenograft AMO-1 (DSMZ) tumor volume Day 26, Median [4]: 392.97 mm³
% T/C (mean) tumor volume Day 26 (6.25 mg/kg QDx1 IV, Day 26, mean(T)/mean(C)): 28.88%
% T/C (median) tumor volume Day 26 (6.25 mg/kg QDx1 IV, Day 26, median(T)/median(C)): 24.60%
Xenograft AMO-1 (DSMZ) tumor volume Day 28, Mean [5]: 690.68 mm³
Xenograft AMO-1 (DSMZ) tumor volume Day 28, Median [5]: 578.26 mm³
% T/C (mean) tumor volume Day 28 (6.25 mg/kg QDx1 IV, Day 28, mean(T)/mean(C)): 33.71%
% T/C (median) tumor volume Day 28 (6.25 mg/kg QDx1 IV, Day 28, median(T)/median(C)): 29.98%
Xenograft AMO-1 (DSMZ) tumor volume Day 26, individual animals (6.25 mg/kg QDx1 IV, SCID-beige female mice, Day 26): 386 mm³ and 701 mm³ and 245 mm³ and 206 mm³ and 598 mm³ and 235 mm³ and 868 mm³ and 400 mm³
Xenograft AMO-1 (DSMZ) tumor volume Day 28, individual animals (6.25 mg/kg QDx1 IV, SCID-beige female mice, Day 28): 518 mm³ and 1122 mm³ and 542 mm³ and 307 mm³ and 666 mm³ and 511 mm³ and 1246 mm³ and 614 mm³
Xenograft AMO-1 (DSMZ) Day 21, Mean [6]: 175.92 mm³
Xenograft AMO-1 (DSMZ) Day 21, Median [6]: 202.13 mm³
Xenograft AMO-1 (DSMZ) (mm³) Day 21, individual animals (6.25 mg/kg QDx1 IV, SCID-beige mice, Day 21, individual tumor volumes): 202 mm³ (2×) and 236 mm³ and 49 mm³ and 84 mm³ and 144 mm³ and 230 mm³ and 260 mm³
% T/C (mean), Tumor Volume Day 21 (6.25 mg/kg QDx1 IV, SCID-beige mice, Day 21, mean(T)/mean(C)): 27.52%
% T/C (median), Tumor Volume Day 21 (6.25 mg/kg QDx1 IV, SCID-beige mice, Day 21, median(T)/median(C)): 38.38%
Xenograft AMO-1 (DSMZ) Day 23 Mean [7]: 218.85 mm³
Xenograft AMO-1 (DSMZ) Day 23 Median [7]: 225.89 mm³
Xenograft AMO-1 (DSMZ) (mm³) Day 23, individual animals (6.25 mg/kg QDx1 IV, SCID-beige mice, Day 23, individual tumor volumes): 209 mm³ and 282 mm³ and 56 mm³ and 156 mm³ and 155 mm³ and 243 mm³ and 349 mm³ and 301 mm³
% T/C (mean), body weight Day 23 [8]: 103.53%
% T/C (mean), tumor volume Day 23 [8]: 20.49%
% T/C (median), body weight Day 23 [9]: 103.53%
% T/C (median), tumor volume Day 23 [9]: 23.21%
Xenograft AMO-1 (DSMZ) (mm³) Day 30 (individual animals) (6.25 mg/kg QDx1 IV, Day 30, SCID-beige female mice, tumor volume per animal): 694 mm³ and 1347 mm³ and 555 mm³ and 384 mm³ and 801 mm³ and 782 mm³ and 1535 mm³ and 959 mm³
Xenograft AMO-1 (DSMZ) (mm³) Day 30 Mean (6.25 mg/kg QDx1 IV, Day 30, group mean): 882.20 mm³
Xenograft AMO-1 (DSMZ) (mm³) Day 30 Median (6.25 mg/kg QDx1 IV, Day 30, group median): 791.67 mm³
Xenograft AMO-1 (DSMZ) (mm³) Day 34 (individual animals) (6.25 mg/kg QDx1 IV, Day 34, SCID-beige female mice, tumor volume per animal): 2680 mm³ and 1975 mm³ and 1296 mm³ and 886 mm³ and 1388 mm³ and 1259 mm³ and 1718 mm³ and 1542 mm³
